In ChEMBL document CHEMBL1201862, “PubChem BioAssay data set” (2004):
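Each compound was tested at five concentrations against cells in 96-well plates for 48 hours. Abbreviation: GI50, concentration required for 50% inhibition of growth.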 The source made the active and inactive calls. Rule as the data show it: active = GI50 up to about 1.1 µM and inactive = higher.

What was measured:
Assay in all cases: DTP human tumour cell line panel, 48 h
786-0 = system: 786-0
A498 = system: A498
A549 = system: A549
ACHN = system: ACHN
BT-549 = system: BT-549
CAKI-1 = system: CAKI-1
CCRF-CEM = system: CCRF-CEM
COLO 205 = system: COLO 205
EKVX = system: EKVX
HCC 2998 = system: HCC 2998
HCT-116 = system: HCT-116
HCT-15 = system: HCT-15
HL-60 = system: HL-60
HOP-62 = system: HOP-62
HOP-92 = system: HOP-92
HT-29 = system: HT-29
Hs-578T = system: Hs-578T
IGROV-1 = system: IGROV-1
K562 = system: K562
KM12 = system: KM12
LOX IMVI = system: LOX IMVI
M14 = system: M14
MCF7 = system: MCF7
MDA-MB-231 = system: MDA-MB-231
MDA-MB-435 = system: MDA-MB-435
MDA-N = system: MDA-N
MOLT-4 = system: MOLT-4
Malme-3M = system: Malme-3M
NCI-H226 = system: NCI-H226
NCI-H23 = system: NCI-H23
NCI-H522 = system: NCI-H522
NCI/ADR-RES = system: NCI/ADR-RES
OVCAR-3 = system: OVCAR-3
OVCAR-5 = system: OVCAR-5
OVCAR-8 = system: OVCAR-8
PC-3 = system: PC-3
RPMI-8226 = system: RPMI-8226
RXF 393 = system: RXF 393
SF-268 = system: SF-268
SF-295 = system: SF-295
SF-539 = system: SF-539
SK-MEL-2 = system: SK-MEL-2
SK-MEL-5 = system: SK-MEL-5
SK-OV-3 = system: SK-OV-3
SN12C = system: SN12C
SNB-19 = system: SNB-19
SNB-75 = system: SNB-75
SR = system: SR
SW-620 = system: SW-620
T47D = system: T47D
TK-10 = system: TK-10
U-251 = system: U-251
UACC-257 = system: UACC-257
UACC-62 = system: UACC-62
UO-31 = system: UO-31
DU-145 = system: DU-145
NCI-H460 = system: NCI-H460
OVCAR-4 = system: OVCAR-4
SK-MEL-28 = system: SK-MEL-28

SMILES: O=c1cc(N2CCOCC2)n2c(ccc3ccccc32)n1
- GI50 (786-0): > 100 µM (inactive)
- GI50 (A498): > 100 µM (inactive)
- GI50 (A549): > 100 µM (inactive)
- GI50 (ACHN): > 100 µM (inactive)
- GI50 (BT-549): > 100 µM (inactive)
- GI50 (CAKI-1): > 100 µM (inactive)
- GI50 (CCRF-CEM): > 100 µM (inactive)
- GI50 (COLO 205): > 100 µM (inactive)
- GI50 (EKVX): > 100 µM (inactive)
- GI50 (HCC 2998): > 100 µM (inactive)
- GI50 (HCT-116): > 100 µM (inactive)
- GI50 (HCT-15): > 100 µM
- GI50 (HL-60): > 100 µM (inactive)
- GI50 (HOP-62): > 100 µM (inactive)
- GI50 (HOP-92): > 100 µM (inactive)
- GI50 (HT-29): > 100 µM (inactive)
- GI50 (Hs-578T): > 100 µM (inactive)
- GI50 (IGROV-1): > 100 µM (inactive)
- GI50 (K562): > 100 µM (inactive)
- GI50 (KM12): > 100 µM (inactive)
- GI50 (LOX IMVI): > 100 µM (inactive)
- GI50 (M14): > 100 µM (inactive)
- GI50 (MCF7): > 100 µM (inactive)
- GI50 (MDA-MB-231): > 100 µM (inactive)
- GI50 (MDA-MB-435): > 100 µM (inactive)
- GI50 (MDA-N): 31.7 µM (inactive)
- GI50 (MOLT-4): > 100 µM (inactive)
- GI50 (Malme-3M): > 100 µM (inactive)
- GI50 (NCI-H226): > 100 µM (inactive)
- GI50 (NCI-H23): > 100 µM (inactive)
- GI50 (NCI-H522): > 100 µM (inactive)
- GI50 (NCI/ADR-RES): > 100 µM (inactive)
- GI50 (OVCAR-3): > 100 µM (inactive)
- GI50 (OVCAR-5): > 100 µM (inactive)
- GI50 (OVCAR-8): > 100 µM (inactive)
- GI50 (PC-3): > 100 µM (inactive)
- GI50 (RPMI-8226): > 100 µM (inactive)
- GI50 (RXF 393): > 100 µM (inactive)
- GI50 (SF-268): > 100 µM (inactive)
- GI50 (SF-295): > 100 µM (inactive)
- GI50 (SF-539): > 100 µM (inactive)
- GI50 (SK-MEL-2): > 100 µM (inactive)
- GI50 (SK-MEL-5): > 100 µM (inactive)
- GI50 (SK-OV-3): > 100 µM (inactive)
- GI50 (SN12C): > 100 µM (inactive)
- GI50 (SNB-19): > 100 µM (inactive)
- GI50 (SNB-75): > 100 µM (inactive)
- GI50 (SR): > 100 µM (inactive)
- GI50 (SW-620): > 100 µM (inactive)
- GI50 (T47D): > 100 µM (inactive)
- GI50 (TK-10): > 100 µM (inactive)
- GI50 (U-251): > 100 µM (inactive)
- GI50 (UACC-257): > 100 µM (inactive)
- GI50 (UACC-62): > 100 µM (inactive)
- GI50 (UO-31): > 100 µM (inactive)

SMILES: O=C(Cc1ccccc1)NN1C(=O)/C(=C\c2ccc(O)cc2)S/C1=N\c1ccccc1
- GI50 (786-0): > 100 µM (inactive)
- GI50 (A498): > 100 µM (inactive)
- GI50 (A549): > 100 µM (inactive)
- GI50 (ACHN): > 100 µM (inactive)
- GI50 (BT-549): > 100 µM (inactive)
- GI50 (CCRF-CEM): > 100 µM (inactive)
- GI50 (COLO 205): > 100 µM (inactive)
- GI50 (DU-145): > 100 µM (inactive)
- GI50 (EKVX): > 100 µM (inactive)
- GI50 (HCC 2998): > 100 µM (inactive)
- GI50 (HCT-116): > 100 µM (inactive)
- GI50 (HCT-15): > 100 µM
- GI50 (HL-60): > 100 µM (inactive)
- GI50 (HOP-62): > 100 µM (inactive)
- GI50 (HOP-92): 21.6 µM (inactive)
- GI50 (HT-29): > 100 µM (inactive)
- GI50 (Hs-578T): > 100 µM (inactive)
- GI50 (IGROV-1): > 100 µM (inactive)
- GI50 (K562): > 100 µM (inactive)
- GI50 (KM12): > 100 µM (inactive)
- GI50 (M14): > 100 µM (inactive)
- GI50 (MCF7): 84.1 µM (inactive)
- GI50 (MDA-MB-231): > 100 µM (inactive)
- GI50 (MDA-MB-435): > 100 µM (inactive)
- GI50 (MDA-N): > 100 µM (inactive)
- GI50 (MOLT-4): 95.5 µM (inactive)
- GI50 (NCI-H226): > 100 µM (inactive)
- GI50 (NCI-H23): > 100 µM (inactive)
- GI50 (NCI-H460): > 100 µM (inactive)
- GI50 (NCI/ADR-RES): > 100 µM (inactive)
- GI50 (OVCAR-3): > 100 µM (inactive)
- GI50 (OVCAR-4): > 100 µM (inactive)
- GI50 (OVCAR-5): > 100 µM (inactive)
- GI50 (OVCAR-8): > 100 µM (inactive)
- GI50 (RPMI-8226): > 100 µM (inactive)
- GI50 (RXF 393): > 100 µM (inactive)
- GI50 (SF-268): > 100 µM (inactive)
- GI50 (SF-295): > 100 µM (inactive)
- GI50 (SF-539): > 100 µM (inactive)
- GI50 (SK-MEL-28): > 100 µM (inactive)
- GI50 (SK-MEL-2): > 100 µM (inactive)
- GI50 (SK-MEL-5): > 100 µM (inactive)
- GI50 (SK-OV-3): > 100 µM (inactive)
- GI50 (SN12C): > 100 µM (inactive)
- GI50 (SNB-19): > 100 µM (inactive)
- GI50 (SNB-75): 50.7 µM (inactive)
- GI50 (SW-620): > 100 µM (inactive)
- GI50 (T47D): 41 µM (inactive)
- GI50 (TK-10): > 100 µM (inactive)
- GI50 (U-251): > 100 µM (inactive)
- GI50 (UACC-257): > 100 µM (inactive)
- GI50 (UACC-62): > 100 µM (inactive)
- GI50 (UO-31): > 100 µM (inactive)

SMILES: O=C1C(=CNc2ccc([N+](=O)[O-])cc2)C(=O)N(c2ccccc2)C(=O)N1c1ccccc1
- GI50 (786-0): > 100 µM (inactive)
- GI50 (A498): > 100 µM (inactive)
- GI50 (A549): > 100 µM (inactive)
- GI50 (ACHN): 64.7 µM (inactive)
- GI50 (BT-549): > 100 µM (inactive)
- GI50 (CAKI-1): > 100 µM (inactive)
- GI50 (CCRF-CEM): > 100 µM (inactive)
- GI50 (COLO 205): > 100 µM (inactive)
- GI50 (EKVX): > 100 µM (inactive)
- GI50 (HCC 2998): > 100 µM (inactive)
- GI50 (HCT-116): > 100 µM (inactive)
- GI50 (HCT-15): 76 µM
- GI50 (HOP-62): > 100 µM (inactive)
- GI50 (HOP-92): > 100 µM (inactive)
- GI50 (HT-29): > 100 µM (inactive)
- GI50 (Hs-578T): > 100 µM (inactive)
- GI50 (IGROV-1): > 100 µM (inactive)
- GI50 (K562): > 100 µM (inactive)
- GI50 (KM12): 36.7 µM (inactive)
- GI50 (LOX IMVI): > 100 µM (inactive)
- GI50 (M14): 73.1 µM (inactive)
- GI50 (MCF7): > 100 µM (inactive)
- GI50 (MDA-MB-231): > 100 µM (inactive)
- GI50 (MDA-MB-435): > 100 µM (inactive)
- GI50 (MDA-N): > 100 µM (inactive)
- GI50 (MOLT-4): > 100 µM (inactive)
- GI50 (Malme-3M): > 100 µM (inactive)
- GI50 (NCI-H226): > 100 µM (inactive)
- GI50 (NCI-H23): > 100 µM (inactive)
- GI50 (NCI-H460): > 100 µM (inactive)
- GI50 (NCI-H522): > 100 µM (inactive)
- GI50 (NCI/ADR-RES): > 100 µM (inactive)
- GI50 (OVCAR-3): 56.6 µM (inactive)
- GI50 (OVCAR-4): > 100 µM (inactive)
- GI50 (OVCAR-5): > 100 µM (inactive)
- GI50 (OVCAR-8): > 100 µM (inactive)
- GI50 (PC-3): > 100 µM (inactive)
- GI50 (RPMI-8226): 71.6 µM (inactive)
- GI50 (RXF 393): > 100 µM (inactive)
- GI50 (SF-268): > 100 µM (inactive)
- GI50 (SF-295): 66.2 µM (inactive)
- GI50 (SK-MEL-2): 85.7 µM (inactive)
- GI50 (SK-MEL-5): > 100 µM (inactive)
- GI50 (SK-OV-3): > 100 µM (inactive)
- GI50 (SN12C): > 100 µM (inactive)
- GI50 (SNB-19): > 100 µM (inactive)
- GI50 (SNB-75): 71.6 µM (inactive)
- GI50 (SR): > 100 µM (inactive)
- GI50 (SW-620): > 100 µM (inactive)
- GI50 (T47D): 70.1 µM (inactive)
- GI50 (TK-10): 25.5 µM (inactive)
- GI50 (U-251): > 100 µM (inactive)
- GI50 (UACC-257): > 100 µM (inactive)
- GI50 (UACC-62): 41.3 µM (inactive)
- GI50 (UO-31): > 100 µM (inactive)
